Measured values: patent US5955501A, “Protein kinase C modulators O” (priority 1995, dated 1999)
Counter-ions that a name gives are not always drawn. Like-named read-outs stand apart in the source and are kept apart here.

System: HIV
Test: Anti-HIV activity in HIV-infected human peripheral blood lymphocytes (supernatant viral RNA and p24 core protein)
Type: cell-based
Details: for inhibition at 10 µM / EC50: Human immunodeficiency virus 1, Lymphocyte; for inhibition at 10 µM: read-out: percent inhibition of viral RNA production; for percent inhibition of viral RNA production: at 10 μM
Protocol: Human peripheral blood lymphocytes were isolated from the buffy coat fractions of blood donations. The lymphocytes were then stimulated with 5 μg/ml of phytohemagglutinin for 48 hours. Prior to infection with HIV, the lymphocytes were washed and resuspended in mitogen-free medium. On day 0 the cells were infected with HIV and were cultured for four days in the presence or absence of graded concentrations of 20-deoxy-20-chlorophorbol 12,13-bis[(2',4'-difluorophenyl)acetate]. On days 3 and 4 the supernatant levels of total viral RNA and viral core protein p24 were determined at each drug concentration and dose-response curves were used to determine the concentration of drug giving 50% inhibition of production of viral RNA and of p24 core protein. At four days these ED50 values were less than 100 pM for both RNA and p24.
(§1) In a manner similar to Example 111, the anti-HIV ED50 values for RNA [drug concentration is in brackets] for the following diterpenoid compounds were determined from dose-response curves or by estimation from one or more experimental drug concentrations.
as §1, with “indolactam-type” for “diterpenoid”, “concentrations, data giving percent inhibition of viral RNA production at selected concentrations appear in parentheses:” for “concentrations.”
as §1, with “diacylglycero-type” for “diterpenoid”, “concentrations; data giving percent inhibition of viral RNA production at selected concentrations appear in parentheses: […]” for “concentrations.”

[1] = from dose-response curves or by estimation from one or more experimental drug concentrations, read-out: anti-HIV ED50 for RNA

Row | Molecule | EC50 [1] [µM] | further results
1 | CNC(=O)OC[C@@H]1Cc2cn(CC[P+](c3ccccc3)(c3ccccc3)c3ccccc3)c3cccc(c23)N(C)[C@@H](C(C)C)C(=O)N1 (relative stereo) [rac-14-O-(N-methyl)carbamoyl-1-N-(2'-triphenylphosphonium)ethylindolactam V, methanesulfonate salt] |  | inhibition at 10 µM: 82%
2 | CC1=C[C@H]2[C@@]3(O)[C@H](C)[C@@H](OC(=O)Cc4ccc(F)cc4F)[C@]4(OC(=O)Cc5ccc(F)cc5F)[C@H]([C@@H]3C=C(CBr)C[C@]2(O)C1=O)C4(C)C [20-deoxy-20-bromophorbol 12,13-bis[(2',4'-difluorophenyl)acetate]] | < 0.001 | 
3 | CCC[S+]([O-])CC1=C[C@H]2[C@@H]3C(C)(C)[C@]3(OC(=O)Cc3ccc(F)cc3F)[C@H](OC(=O)Cc3ccc(F)cc3F)[C@@H](C)[C@]2(O)[C@@H]2C=C(C)C(=O)[C@@]2(O)C1 (stereo partly shown) [20-deoxy-20-(propylsulfinyl)phorbol 12,13-bis[(2',4'-difluorophenyl)acetate]] | 0.5 | 
4 | CC1=C[C@H]2[C@@]3(O)[C@H](C)[C@@H](OC(=O)Cc4ccc(F)cc4F)[C@]4(OC(=O)Cc5ccc(F)cc5F)[C@H]([C@@H]3C=C(COC(=O)Oc3ccc(O)cc3)C[C@]2(O)C1=O)C4(C)C [20-O-(4'-hydroxyphenoxy)carbonylphorbol 12,13-bis[(2',4'-difluorophenyl)acetate]] | < 0.01 | 
5 | CC1=C[C@H]2[C@@]3(O)[C@H](C)[C@@H](OC(=O)Cc4c(F)c(F)c(F)c(F)c4F)[C@]4(OC(=O)Cc5c(F)c(F)c(F)c(F)c5F)[C@H]([C@@H]3C=C(CCl)C[C@]2(O)C1=O)C4(C)C [20-deoxy-20-chlorophorbol 12,13-bis[(pentafluorophenyl)acetate]] | < 0.001 | 
6 | CC1=C[C@H]2[C@@]3(O)[C@H](C)[C@@H](OC(=O)Cc4ccc(F)cc4F)[C@]4(OC(=O)Cc5ccc(F)cc5F)[C@H]([C@@H]3C=C(CSCCO)C[C@]2(O)C1=O)C4(C)C [20-deoxy-20-(2'-hydroxyethylthio)phorbol 12,13-bis[(2',4'-difluorophenyl)acetate]] | 1 | 
7 | CCCCCCCCCCCCCC(=O)O[C@@H]1[C@@H](C)[C@@]2(O)[C@@H](C=C(CS(=O)(=O)CCO)C[C@]3(O)C(=O)C(C)=C[C@@H]23)[C@@H]2C(C)(C)[C@]12OC(C)=O [20-deoxy-20-(2'-hydroxyethylsulfonyl)phorbol 12-myristate 13-acetate] | 0.5 | 
8 | O=C1CCCCCCCCCCCCCCCCCCC(=O)OC(CSCCO)CO1 (stereo not shown) [3-[(2'-hydroxyethylthio)methyl]-1,6-dioxo-2,5-dioxacyclotetracosane] | 0.01 | 
9 | CC1=C[C@H]2[C@@]3(O)[C@H](C)[C@@H](OC(=O)Cc4ccc(F)cc4F)[C@]4(OC(=O)Cc5ccc(F)cc5F)[C@H]([C@@H]3C=C(C=NO)C[C@]2(O)C1=O)C4(C)C [20-deoxy-20-hydroximinophorbol 12,13-bis[(2',4'-difluorophenyl)acetate]] | 5.5 | 
10 | CC1=C[C@H]2[C@@]3(O)[C@H](C)[C@@H](OC(=O)Cc4ccc(F)cc4F)[C@]4(OC(=O)Cc5ccc(F)cc5F)[C@H]([C@@H]3C=C(CN)C[C@]2(O)C1=O)C4(C)C [20-deoxy-20-aminophorbol 12,13-bis[(2',4'-difluorophenyl)acetate]] | 0.1 | 
11 | CCCCCCCCc1ccc2c3c(c[nH]c13)C[C@@H](COC(=O)NC)NC(=O)[C@H](C(C)C)N2C [14-O-(N-Methyl)carbamoyl-7-octyl-(9S,12S)-indolactam V] |  | inhibition at 10 µM: 87%
12 | CC1=C[C@H]2[C@@]3(O)[C@H](C)[C@@H](OC(=O)Cc4ccc(F)cc4F)[C@]4(OC(=O)Cc5ccc(F)cc5F)[C@H]([C@@H]3C=C(CCl)C[C@]2(O)C1=O)C4(C)C [20-deoxy-20-chlorophorbol 12,13-bis[(2',4'-difluorophenyl)acetate]] |  | EC50 (96 h, supernatant total viral RNA, at four days, read-out: ED50, concentration of drug giving 50% inhibition of production of viral RNA): < 0.0001 µM; EC50 (96 h, supernatant viral core protein p24, at four days, read-out: ED50, concentration of drug giving 50% inhibition of production of p24 core protein): < 0.0001 µM
13 | CCCCCCCCc1ccc2c3c(c[nH]c13)C[C@@H](CSCCO)NC(=O)[C@H](C(C)C)N2C [14-deoxy-14-(2'-hydroxyethylthio)-7-octyl-(9S,12S)-indolactam V] | 0.1 | 
14 | CCCCCCCCCCCCCC(=O)O[C@@H]1[C@@H](C)[C@@]2(O)[C@@H](C=C(C[S+]([O-])CCO)C[C@]3(O)C(=O)C(C)=C[C@@H]23)[C@@H]2C(C)(C)[C@]12OC(C)=O (stereo partly shown) [20-deoxy-20-(2'-hydroxyethylsulfinyl)phorbol 12-myristate 13-acetate] | 1.1 | 
15 | 9-deshydroxymethyl-9-[N-(2'-glucosyl)]carboxamidoindolactam V |  | percent inhibition of viral RNA production: 35%
16 | CC1=C[C@H]2[C@@]3(O)[C@H](C)[C@@H](OC(=O)Cc4ccc(F)cc4F)[C@]4(OC(=O)Cc5ccc(F)cc5F)[C@H]([C@@H]3C=C(CS(=O)(=O)CCO)C[C@]2(O)C1=O)C4(C)C [20-deoxy-20-(2'-hydroxyethylsulfonyl)phorbol 12,13-bis[(2',4'-difluorophenyl)acetate]] | 5 | 
17 | CC1=C[C@H]2[C@@]3(O)[C@H](C)[C@@H](OC(=O)Cc4ccc(F)cc4F)[C@]4(OC(=O)Cc5ccc(F)cc5F)[C@H]([C@@H]3C=C(C=NO)C[C@]2(O)C1=NO)C4(C)C [20-deoxy-3-deoxo-3,20-bis(hydroximino)phorbol 12,13-bis[(2',4'-difluorophenyl)acetate]] | 0.045 | 
18 | CC(C)C1C(=O)NC(C(=O)OCC(O)CO)Cc2c[nH]c3cccc(c23)N1C (stereo not shown) [9-deshydroxymethyl-9-(2',3'-dihydroxy)propyloxycarbonylindolactam V] |  | percent inhibition of viral RNA production: 20%
19 | CC1=C[C@H]2[C@@]3(O)[C@H](C)[C@@H](OC(=O)Cc4ccc(F)cc4F)[C@]4(OC(=O)Cc5ccc(F)cc5F)[C@H]([C@@H]3C=C(C[S+]([O-])CCO)C[C@]2(O)C1=O)C4(C)C (stereo partly shown) [20-deoxy-20-(2'-hydroxyethylsulfinyl)phorbol 12,13-bis[(2',4'-difluorophenyl)acetate]] | 1.6 | 
20 | CC1=C[C@H]2[C@@]3(O)[C@H](C)[C@@H](OC(=O)Cc4ccc(F)cc4F)[C@]4(OC(=O)Cc5ccc(F)cc5F)[C@H]([C@@H]3C=C(CNc3cccc(CO)c3)C[C@]2(O)C1=O)C4(C)C [20-deoxy-20-[(3'-hydroxymethylphenyl)amino]phorbol 12,13-bis[(2',4'-difluorophenyl)acetate]] | 0.18 | 
21 | CC1=C[C@H]2[C@@]3(O)[C@H](C)[C@@H](OC(=O)Cc4c(F)c(F)c(F)c(F)c4F)[C@]4(OC(=O)Cc5c(F)c(F)c(F)c(F)c5F)[C@H]([C@@H]3C=C(CF)C[C@]2(O)C1=O)C4(C)C [20-deoxy-20-fluorophorbol 12,13-bis[(pentafluorophenyl)acetate]] | 0.001 | 
22 | COC(=O)C1=C[C@H]2[C@@H]3C(C)(C)[C@]3(OC(=O)Cc3ccc(F)cc3F)[C@H](OC(=O)Cc3ccc(F)cc3F)[C@@H](C)[C@]2(O)[C@@H]2C=C(C)C(=O)[C@@]2(O)C1 [6-deshydroxymethyl-6-methoxycarbonylphorbol 12,13-bis[(2',4'-difluorophenyl)acetate]] | 1.6 | 
23 | CC1=C[C@H]2[C@@]3(O)[C@H](C)[C@@H](OC(=O)Cc4ccc(F)cc4F)[C@]4(OC(=O)Cc5ccc(F)cc5F)[C@H]([C@@H]3C=C(CSCC(O)CO)C[C@]2(O)C1=O)C4(C)C (stereo partly shown) [20-deoxy-20-(2',3'-dihydroxypropylthio)phorbol 12,13-bis[(2',4'-difluorophenyl)acetate]] | 3 | 
24 | CC1=C[C@H]2[C@@]3(O)[C@H](C)[C@@H](OC(=O)Cc4ccc(F)cc4F)[C@]4(OC(=O)Cc5ccc(F)cc5F)[C@H]([C@@H]3C=C(CSCCC(=O)O)C[C@]2(O)C1=O)C4(C)C [20-deoxy-20-(2'-carboxyethylthio)phorbol 12,13-bis(2',4'-difluorophenylacetate)] | 4.5 | 
